Where two headings read alike, the source gives them in different places.
What was measured:
[1] = SOD activity by the cytochrome c method (xanthine/xanthine oxidase); type: biochemical; conditions: pH 7.8, 25° C., metalloporphyrin concentration
Protocol: The SOD activity (i.e. O2— extinction activity) of Por-embedding niosome was evaluated according to the cytochrome c method ((1) J. M. Mccord and I. Fridovich, J. Biol. Chem., 244, 6049 (1969) and (2) J. Butler, W. H. Kopenol, E. Margoliash, J. Biol. Chem., 257, 10747 (1982)). A specific procedure was as follows: Five or more Por-embedding niosome solutions (A solutions) with different metalloporphyrin concentrations ranging from 0 to 1,000 μM were prepared. […] The UV-vis was also measured for a solution without addition of Por-embedding niosome (blank) in the same manner.
The ferrocytochrome c formation rates in a solution not containing Por-embedding niosome (vo) and a solution containing Por-embedding niosome (vi) were determined from the relationship between the time and the absorbance at 550 nm in the UV-vis measurement over time. The inhibition coefficient (IC) was calculated according to the following formula to determine the concentration of metalloporphyrin when IC=50% (IC50) from the relationship between the concentration of metalloporphyrin complex and IC. […] The SOD activity of MnT4MPyP and the like was evaluated in the same manner for reference. […]

[2] = SOD activity by the stopped flow method (potassium superoxide); type: biochemical; conditions: HEPES buffer pH 8.1, 36° C.
Protocol: The SOD activity (i.e. ° 2-extinction activity) of Por-embedding niosome was evaluated according to the stopped flow method of Riley et al. (D. P. Riley, W. L. Rivers, and R. H. Weiss, Anal. Biochem., 196, 344 (1991)). A specific procedure was as follows: 60 mM HEPES/HEPES Na buffer solutions (8.1 pH) containing Por-embedding niosome at different concentrations were rapidly mixed with a dimethyl sulfoxide solution of potassium superoxide, which is an O2^−. generation source, at 36° C. to measure over time an attenuation of absorbance at 245 nm due to O2^−. (a decay curve of O2^−. extinction reaction). The relationship of ln (absorbance) and time was determined from the decay curve. The apparent rate constant was calculated from the inclination of the resulting relationship. The rate constant (kcat) of the O2^−. extinction reaction was then determined from the inclination of the relationship of the metalloporphyrin complex concentration and the apparent rate constant.

[3] = value disclosed by Fridovich et al., J. Biol. Chem., 273, 24251 (1998); read-out: IC50 (SOD activity); cited from earlier work
[4] = value disclosed by Ohse, Kawakami et al., J. Inorg. Biochem., 85, 201 (2001); cited from earlier work

Compound	IC50 [1]	kcat (rate constant of the O2−. extinction reaction) [2]	IC50 [3]	kcat (rate constant of the O2−. extinction reaction) [4]
manganese[5,10,15,20-tetrakis(2-methylpyridyl)porphyrin] [MnT2MPyP]	180 nM	2.1e+07 M⁻¹ s⁻¹		
C[n+]1ccc(-c2c3nc(c(-c4cc[n+](C)cc4)c4ccc([n-]4)c(-c4cc[n+](C)cc4)c4nc(c(-c5cc[n+](C)cc5)c5ccc2[n-]5)C=C4)C=C3)cc1.[Mn+2] [MnT4MPyP, Manganese[5,10,15,20-tetrakis(4-methylpyridyl)porphyrin]]	430 nM	1.4e+07 M⁻¹ s⁻¹	700 nM	2.2e+07 M⁻¹ s⁻¹

Reference: patent US20080269184A1, “Niosome Having Metal Porphyrin Complex Embedded Therein, Process For Producing The Same And Drug With The Use Thereof” (priority 2004, published 2008)
